From patent publication US10463644B2, “Uses of sesquiterpene lactone compounds and their derivatives in drugs preparation” (ACCENDATECH, priority 2013, dated 2019)

Tested on: TNF-α secreted by synoviocyte
Test: Content of TNF-α in culture supernatant of synoviocyte of RA model rats given test compound
Assay type: in vivo
Conditions: rat RA model, dose 30 mg/kg.2d, normal control 0.38 ± 0.027, NaCl 0.74 ± 0.098
Description: Take Compound 1-50 prepared as per the method according to the present invention and employ the method provided in Reference to prepare model, group drugs and prepare culture supernatant of rat synoviocyte.
Employ the method provided in Reference to investigate the effects of the test compounds on the synoviocyte to secrete TNF-α and PGE2. Employ the method provided in Reference to investigate the effects of the test compounds on the synoviocyte to secrete IL-1β.
The experimental data of the test compound 1-50 at a dose of 30 mg/kg.2d as well as the normal control and NaCl group are as follows: […]

Row | SMILES | Content of TNF-α in culture supernatant of synoviocyte (x ± s) [ng/mL] | Content of TNF-α in culture supernatant of synoviocyte (x ± s) (30 mg/kg) [ng/mL]
1 | C=C1C(=O)O[C@H]2[C@H]1CC[C@]1(C)O[C@@]13CC[C@@](C)(O)[C@H]23 [Compound 24] | 0.54 ± 0.057 | 
2 | CN(C)C[C@@H]1C(=O)O[C@H]2[C@H]1CCC1(CC1)[C@@H]1CCC3(CC3)[C@H]21 [Compound 35] | 0.57 ± 0.057 | 
3 | C=C1C(=O)O[C@@H]2[C@@H]3[C@@H](CC[C@@]3(C)O)C(=C)CC[C@@H]12 [Compound 48] | 0.62 ± 0.054 | 
4 | C=C1C(=O)O[C@@H]2[C@@H]3[C@@H](CC[C@@]3(C)O)[C@](C)(O)CC[C@@H]12 [Compound 49] | 0.65 ± 0.046 | 
5 | C=C1CC[C@H]2C(=C)CC[C@H]3C(=C)C(=O)O[C@@H]3[C@@H]12 [Compound 25] | 0.58 ± 0.056 | 
6 | [2H][C@@]1(CN(C)C)C(=O)O[C@@H]2[C@@H]3[C@@H](CCC34CC4)C3(CC[C@H]21)CC3 [Compound 46] | 0.56 ± 0.034 | 
7 | C=C1C(=O)O[C@@H]2[C@@H]3[C@@H](CCC34CC4)C3(CC[C@@H]12)CC3 [Compound 26] | 0.59 ± 0.051 | 
8 | C=C1C(=O)O[C@H]2[C@H]1CCC(C)=C1CC[C@@](C)(OC(=O)CCCc3cn(CCCCCCO)nn3)[C@@H]12 [Compound 21] | 0.56 ± 0.034 | 
9 | C=C1C(=O)O[C@H]2[C@H]1CC[C@@](C)(OC)C1CC[C@@](C)(O)[C@@H]12 (stereo partly shown) [Compound 47] | 0.64 ± 0.062 | 
10 | CC1=C2CC[C@@](C)(O)[C@@H]2[C@H]2OC(=O)[C@@H](CN(C)C)[C@@H]2CC1 [Compound 23] |  | 0.63 ± 0.063
11 | CCOC(=O)[C@@H]1CCCN1C[C@@H]1C(=O)O[C@H]2[C@H]1CCC1(CC1)[C@@H]1CCC3(CC3)[C@H]21 [Compound 29] | 0.66 ± 0.046 | 
12 | CN(C)C[C@@H]1C(=O)O[C@H]2[C@H]1CCC1(CC1)[C@@H]1CCC3(CC3)[C@H]21 [Compound 27] | 0.54 ± 0.066 | 
13 | C=C1C(=O)O[C@@H]2[C@H]3C(C)=CC[C@@]34O[C@@]4(C)CC[C@@H]12 [Compound 50] | 0.52 ± 0.064 | 
